From patent US10434181B2, “Oligomer-containing benzamide-based compounds” (Nektar Therapeutics, priority 2012, dated 2019)
“And” between values parts separate entries of the source, which are not always exact repeats. Equal entries are not always repeated.

Key:
[1] = test system: Sprague-Dawley rat hepatocytes; assay: MetID determination in rat hepatocytes; format: in vitro ADME; conditions: for major metabolic pathway: rat hepatocytes
Description: (§1) Cryopreserved human and Sprague-Dawley rat hepatocytes were thawed in a 37° C. water bath. […] Samples were obtained from separate plates for each time point during the incubation. At each sampling time, the plates were removed from the incubator, quenched by adding 100 μL cold acetonitrile, and placed in an ice bath until centrifugation at 4,000 rpm for 30 minutes at 4° C. Supernatants were stored at or below −70° C. until LC-MS/MS analysis could be conducted. The liquid chromatography system used was Agilent 1100 Autosampler, Binary Pump, DAD and Column Enclosure. Tandem mass spectrometry was conducted using a Thermo DECA XP MAX Ion Trap Mass Spectrometer. The ion source was Electrospray (+) and the LC column used was a Varian, Polaris 5 C18-A (250×2.1 mm, 5 micron) column.
(§2) Metabolic pathways of metoclopramide and conjugates were determined in rat and human hepatocytes. N-dealkylation was the major metabolic pathway for metoclopramide in rats, and metabolism in human hepatocytes was minimal. […] FIG. 2 and FIG. 3 show the metabolic pathway of for mPEG1-N-metoclopramide and mPEG4-N-metoclopramide, respectively. […] In this figure, different metabolites for each conjugate are denoted with the “M” and correspond to the designation provided in the figure for a given conjugate. For example, metabolite M1 for mPEG1-N-metoclopramide in Table 6 corresponds to M1 in FIG. 2, metabolite M2 for mPEG4-N-metoclopramide in Table 6 corresponds to M2 in FIG. 3 and metabolite M3 mPEG8-N-metoclopramide in Table 6 corresponds to M3 in FIG. 4.

human hepatocytes = assay: MetID determination in human hepatocytes; format: in vitro ADME
Description: as §1, §2

[2] = biological target: T1, 5HT4B receptors (serotonin 4B receptors) (Homo sapiens, UniProt Q13639); assay: Competition binding assay (serotonin 4B receptors), [3H]GR113808; conditions: for Fold-change Relative to Parent: IC50 relative to metoclopramide, 5HT4B binding; for IC50: [3H]GR113808 competition, HEK 293 membranes expressing 5HT4B
T1 construct: expressed in transfected cells
T1 sequence (Q13639 whole entry): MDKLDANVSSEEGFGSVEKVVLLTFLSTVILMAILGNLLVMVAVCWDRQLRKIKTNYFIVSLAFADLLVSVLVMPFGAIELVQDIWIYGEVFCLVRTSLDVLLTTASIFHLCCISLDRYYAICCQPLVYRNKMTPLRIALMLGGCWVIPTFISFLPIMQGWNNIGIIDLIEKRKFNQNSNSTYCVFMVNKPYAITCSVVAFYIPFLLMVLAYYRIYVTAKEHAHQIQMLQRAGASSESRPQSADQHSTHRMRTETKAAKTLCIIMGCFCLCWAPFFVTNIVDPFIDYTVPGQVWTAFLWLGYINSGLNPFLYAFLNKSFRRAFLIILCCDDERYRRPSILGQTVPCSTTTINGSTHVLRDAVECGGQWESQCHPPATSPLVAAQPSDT

dopamine 2S receptor = biological target: T2, dopamine 2S receptor (Homo sapiens, UniProt P14416); assay: β-Arrestin functional assay (dopamine), antagonist mode; format: cell-based; conditions: for Fold-change Relative to Parent: IC50 relative to metoclopramide, D2S β-arrestin; for IC50: β-arrestin interaction, CHO-K1 cells expressing D2S, dopamine at EC80 (400 nM)
T2 construct: host or cells: CHO-K1 (PathHunter eXpress β-arrestin cells)
T2 sequence (P14416 1-414 isoform P14416-2): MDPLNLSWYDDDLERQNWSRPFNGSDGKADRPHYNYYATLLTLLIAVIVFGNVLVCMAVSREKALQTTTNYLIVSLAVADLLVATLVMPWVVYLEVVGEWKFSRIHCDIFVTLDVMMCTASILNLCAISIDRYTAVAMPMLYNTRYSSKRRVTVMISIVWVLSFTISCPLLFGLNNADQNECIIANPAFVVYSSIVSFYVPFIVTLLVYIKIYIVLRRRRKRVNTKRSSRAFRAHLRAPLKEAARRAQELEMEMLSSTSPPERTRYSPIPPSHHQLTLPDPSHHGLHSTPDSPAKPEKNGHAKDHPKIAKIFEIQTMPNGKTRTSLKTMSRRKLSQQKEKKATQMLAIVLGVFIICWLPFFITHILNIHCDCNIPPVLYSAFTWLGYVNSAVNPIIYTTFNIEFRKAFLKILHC

dopamine 2L receptors = dopamine 2L receptors (Homo sapiens, UniProt P14416); assay: Competition binding assay (dopamine 2L receptors), [3H]methylspiperone; design: expressed in transfected cells; conditions: for Fold-change Relative to Parent: IC50 relative to metoclopramide, D2L binding; for IC50: [3H]methylspiperone competition, HEK 293 membranes expressing D2L, read-out: IC50
dopamine 2L receptors, sequence (P14416 whole entry): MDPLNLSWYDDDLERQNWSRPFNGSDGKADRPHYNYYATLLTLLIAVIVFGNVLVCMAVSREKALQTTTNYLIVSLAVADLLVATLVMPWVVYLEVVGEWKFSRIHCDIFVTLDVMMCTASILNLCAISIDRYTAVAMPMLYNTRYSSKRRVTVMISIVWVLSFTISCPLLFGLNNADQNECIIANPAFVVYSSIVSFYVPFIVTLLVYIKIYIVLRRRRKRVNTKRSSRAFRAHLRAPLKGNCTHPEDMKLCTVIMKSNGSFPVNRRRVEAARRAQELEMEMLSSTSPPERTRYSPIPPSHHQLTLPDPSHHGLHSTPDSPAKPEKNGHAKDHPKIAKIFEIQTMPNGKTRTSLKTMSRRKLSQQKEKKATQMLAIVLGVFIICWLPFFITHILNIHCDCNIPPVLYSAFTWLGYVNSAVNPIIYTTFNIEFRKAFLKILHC
Description: [^3H] Methylspiperone was diluted in assay buffer to a final concentration of 0.4 nM. To start the assay, 1 uL of compound was added into 96-well v-bottom plates, followed by the addition of 50 uL of diluted membrane preparation, then finally diluted [^3H] Methylspiperone was added. The assay mixture was incubated for 60 minutes at room temperature with shaking. Following incubation, bound [^3H] methylspiperone on 5% PEI soaked GF/B filter plates using a Filtermate Harvester (Perkin Elmer) were then washed four times with ice cold wash buffer (50 mM Tris-HCl, pH 7.5). Filter plates were air dried for two minutes, and then 50 uL of MicroScint-20 was added into each well. Radioactivity counts were quantified using a Top Count plate reader (Perkin Elmer). Data was analyzed using one-site binding competition non-linear regression curve fitting on GraphPad Prism.

in vivo = conditions: male, Sprague Dawley, rat, plasma; for AUC(0-inf) / MRT inf / Vd / clearance / half-life: iv, 0.5 mg/kg
Description: (§3) Rat pharmacokinetic (“PK”) characterization was conducted in male Sprague Dawley Rats (Rattus Norvegicus) weighing between 210-260 gm (Charles River Laboratories (Hollister, Calif.)). Rats were fed a standard diet and water was available ad-libidum at all times. […] Animals were dosed either orally (2.5 mg/Kg) via gavage or intravenously (0.5 mg/kg) via the jugular vein cannula. Blood samples (˜0.15 mL) were collected through carotid artery cannula at respective time points and transferred immediately into K2EDTA-coated tubes (that contain quenching media-acetic acid, PMSF and Dichlorvos) and placed on ice. The samples were centrifuged within thirty minutes after collection at 10,000 RPM for five minutes and the resulting plasma was separated. Plasma were transferred into microfuge tubes and placed on dry ice immediately. The plasma samples were stored at approximately −70° C. until shipped on dry ice for Bioanalysis by LC/MS/MS. Urine samples were collected using metabolic cages into a tube containing citric acid (4 mg for 0-4 and 4-8 hr interval and 16 mg for 8-24 hr interval) on wet ice at the intervals specified in the study design. After the completion of urine collection at each interval, each cage was rinsed with 2 mL of deionized water (1 mL each time). The rinse was collected in the separate labeled container (containing 2 mg of citric acid) as the urine. Following this rinse another 2 ml rinse was carried out with ethanol (1 ml each time). The rinse was also collected in the separate labeled container as the urine. Samples were stored frozen at −70° C. until bioanalysis by LC/MS/MS was performed.
(§4) Pharmacokinetic parameters were determined by non-compartmental analysis using Phoenix®WinNonlin® (Version 6.3; Pharsight Corp., Mountain View, Calif.). Nominal doses and sampling times were used for the analysis. Concentrations reported as BLQ were treated as missing unless they were pre-dose; then they were set to zero. Maximum plasma concentration (Cmax) and time of observed maximum plasma analyte concentration (Tmax) were generated by Phoenix®WinNonlin®, directly from the inputed dataset. […] Area under the plasma concentration-time curve from time 0 to infinity (AUCinf) was calculated as the sum of AUClast and the last observed concentration divided by k. Total plasma clearance (CL) was calculated as Dose/AUCinf. Apparent volume of distribution at steady state (Vss) was calculated as MRTinf*CL, where MRT is the mean residence time.

[3] = Rat PK (intravenous and oral); conditions: for CLRen: intravenous, 0.5 mg/kg; for Clast / Tlast: oral gavage, 2.5 mg/Kg
Description: as §3, §4

[4] = biological target: serotonin 4 receptor (5HT4) (Homo sapiens, UniProt Q13639); assay: cAMP accumulation assay (serotonin 4 receptors); format: cell-based; conditions: for Fold-change Relative to Parent: IC50 relative to metoclopramide, 5HT4 cAMP; for IC50: cAMP accumulation, CHO-K1 cells stably expressing 5HT4
serotonin 4 receptor (5HT4), sequence (Q13639 whole entry, species assumed): as the sequence (Q13639 whole entry) above

[5] = incubation of 10 μM mPEG8-N-metoclopramide, parent and its metabolites M (FIG. 4)
[6] = incubation of 10 μM mPEG4-N-metoclopramide, parent and its metabolites M (FIG. 3)
[7] = incubation of 10 μM mPEG1-N-metoclopramide, parent and its metabolites M (FIG. 2)

## CCN(CCNC(=O)c1cc(Cl)c(N)cc1OC)CCOCCO [M11]
[1]; [5]
  % of Total Metabolism, Rat Hep 1 hr: Trace
  % of Total Metabolism, Rat Hep 4 hr: 3.5%

## CCN(CCNC(=O)c1cc(Cl)c(N)cc1OC)CCOCCOCCOCCO [M13]
Human hepatocytes; [5]
  % of Total Metabolism, Human Hep 4 hr: 2.7%
[1]; [5]
  % of Total Metabolism, Rat Hep 1 hr: 3.0%
  % of Total Metabolism, Rat Hep 4 hr: 12.6%

## CCN(CCNC(=O)c1cc(Cl)c(N)cc1OC)CCOCCOCCO [M12]
Human hepatocytes; [5]
  % of Total Metabolism, Human Hep 4 hr: trace
[1]; [5]
  % of Total Metabolism, Rat Hep 1 hr: Trace
  % of Total Metabolism, Rat Hep 4 hr: 0.7%

## CCN(CCNC(=O)c1cc(Cl)c(N)cc1OC)CCOCCOCCOCCOCCOCCOCCOC [mPEG7-N-Metoclopramide]
[2]
  Fold-change Relative to Parent: 8.8
  IC50: 133 µM
Dopamine 2S receptor
  Fold-change Relative to Parent: 99.57
  IC50: 8.18 µM
Dopamine 2L receptors
  Fold-change Relative to Parent: 137.3
  IC50: 11.6 µM

## CCN(CCNC(=O)c1cc(Cl)c(N)cc1OC)CCOCCOCCOCCOCCOCCOCCO [M16]
Human hepatocytes; [5]
  % of Total Metabolism, Human Hep 1 hr: trace
  % of Total Metabolism, Human Hep 4 hr: trace
[1]; [5]
  % of Total Metabolism, Rat Hep 1 hr: trace
  % of Total Metabolism, Rat Hep 4 hr: trace

## CCN(CCNC(=O)c1cc(Cl)c(N)cc1OC)CCOCCOCCOCCO [M9]
Human hepatocytes; [6]
  % of Total Metabolism, Human Hep 4 hr: 1.9%
Human hepatocytes; [5]
  % of Total Metabolism, Human Hep 1 hr: trace
  % of Total Metabolism, Human Hep 4 hr: trace
[1]; [6]
  % of Total Metabolism, Rat Hep 1 hr: 8.8%
  % of Total Metabolism, Rat Hep 4 hr: 24.8%
[1]; [5]
  % of Total Metabolism, Rat Hep 1 hr: Trace
  % of Total Metabolism, Rat Hep 4 hr: 1.6%

## CCN(CCNC(=O)c1cc(Cl)c(N)cc1OC)CCOCCOCCOCCOCCOCCOCCOCCO [M17]
Human hepatocytes; [5]
  % of Total Metabolism, Human Hep 1 hr: trace
  % of Total Metabolism, Human Hep 4 hr: trace
[1]; [5]
  % of Total Metabolism, Rat Hep 1 hr: trace
  % of Total Metabolism, Rat Hep 4 hr: trace

## CCN(CCNC(=O)c1cc(Cl)c(N)cc1OC)CCOCCOCCOCCOCCOCCOCCOCCOCCOC [mPEG9-N-Metoclopramide]
[2]
  Fold-change Relative to Parent: 13.3
  IC50: 202 µM
Dopamine 2S receptor
  Fold-change Relative to Parent: 87.86
  IC50: 7.22 µM
Dopamine 2S receptor; listed as mPEG9-N-metoclopramide
  Fold-change Relative to Parent: 87.6
Dopamine 2L receptors
  Fold-change Relative to Parent: 131.9
  IC50: 11.1 µM

## CCN(CCO)CCNC(=O)c1cc(Cl)c(N)cc1OC [M6]
[1]; [6]
  % of Total Metabolism, Rat Hep 1 hr: trace
  % of Total Metabolism, Rat Hep 4 hr: trace
[1]; [5]
  % of Total Metabolism, Rat Hep 1 hr: 1%
  % of Total Metabolism, Rat Hep 4 hr: 2.2%

## CCN(CCNC(=O)c1cc(Cl)c(N)cc1OC)CCOCCOCCOCCOCCO [M14]
Human hepatocytes; [5]
  % of Total Metabolism, Human Hep 1 hr: trace
  % of Total Metabolism, Human Hep 4 hr: trace
[1]; [5]
  % of Total Metabolism, Rat Hep 1 hr: Trace
  % of Total Metabolism, Rat Hep 4 hr: 2%

## CCN(CCNC(=O)c1cc(Cl)c(N)cc1OC)CCOCCOCCOCCOCCOCCO [M15]
Human hepatocytes; [5]
  % of Total Metabolism, Human Hep 1 hr: trace
  % of Total Metabolism, Human Hep 4 hr: trace
[1]; [5]
  % of Total Metabolism, Rat Hep 1 hr: Trace
  % of Total Metabolism, Rat Hep 4 hr: 1%

## CCN(CCNC(=O)c1cc(Cl)c(N)cc1OC)CCOCCOC [mPEG2-N-Metoclopramide]
[2]
  Fold-change Relative to Parent: 2.0
  IC50: 29.7 µM
Dopamine 2S receptor
  Fold-change Relative to Parent: 9.57
  IC50: 0.786 µM
Dopamine 2L receptors
  Fold-change Relative to Parent: 16.1
  IC50: 1.36 µM

## CCN(CCNC(=O)c1cc(Cl)c(N)cc1OC)CCOCCOCCO [M8]
Human hepatocytes; [5]
  % of Total Metabolism, Human Hep 1 hr: trace
  % of Total Metabolism, Human Hep 4 hr: trace
[1]; [6]
  % of Total Metabolism, Rat Hep 1 hr: trace
  % of Total Metabolism, Rat Hep 4 hr: 1.5%
[1]; [5]
  % of Total Metabolism, Rat Hep 1 hr: 1.3%
  % of Total Metabolism, Rat Hep 4 hr: 2.5%

## CCN(CCNC(=O)c1cc(Cl)c(N)cc1OC)CCOCCOCCOCCOCCOCCOCCOCCOC [mPEG8-N-Metoclopramide]
[2]
  Fold-change Relative to Parent: 11.9
  IC50: 181 µM
Dopamine 2S receptor
  Fold-change Relative to Parent: 67.4
  IC50: 5.53 µM and 5.54 µM
Human hepatocytes
  extent of metabolism in human hepatocytes: only minor metabolism
Human hepatocytes; [5]
  % of Total Metabolism, Human Hep 1 hr: 100%
  % of Total Metabolism, Human Hep 4 hr: 94.8%
In vivo
  AUC(0-inf): 98.3 ng·h/mL
  MRT inf: 146 min
  Vd: 17.8 L/kg
  clearance: 84.4 mL/min/kg
  half-life: 145 min
[1]; hepatocytes
  N-dealkylation compared with metoclopramide: less compared with metoclopromide
[1]; [5]
  % of Total Metabolism, Rat Hep 1 hr: 83%
  % of Total Metabolism, Rat Hep 4 hr: 43.5%
[1]
  major metabolic pathway: PEG chain modification
Dopamine 2L receptors
  Fold-change Relative to Parent: 80.7
  IC50: 6.79 µM
[3]
  CLRen: 0.54 mL/min/kg

## CCN(CCNC(=O)c1cc(Cl)c(N)cc1OC)CCOC [mPEG1-N-Metoclopramide]
[2]
  Fold-change Relative to Parent: 1.3
  IC50: 19.7 µM
Dopamine 2S receptor
  Fold-change Relative to Parent: 4.19
  IC50: 0.345 µM
Human hepatocytes
  extent of metabolism in human hepatocytes: low metabolism
Human hepatocytes; [7]
  % of Total Metabolism, Human Hep 1 hr: 86.5%
  % of Total Metabolism, Human Hep 4 hr: 90.2%
[4]
  Fold-change Relative to Parent: 1.5
  IC50: 1590 nM
In vivo
  AUC(0-inf): 88.3 ng·h/mL
  MRT inf: 27.6 min
  Vd: 2.84 L/kg
  clearance: 101 mL/min/kg
  half-life: 39 min
In vivo; po, 2.5 mg/kg
  AUC: 24.2 ng·h/mL
  CL/F: 1550 mL/min/kg
  Cmax: 33.2 ng/mL
  Tmax: 0.08 h
  bioavailability: 6.25%
[1]; [7]
  % of Total Metabolism, Rat Hep 1 hr: 32.7%
  % of Total Metabolism, Rat Hep 4 hr: <1.0%
[1]
  major metabolic pathway: N-dealkylation
Dopamine 2L receptors
  Fold-change Relative to Parent: 2.8
  IC50: 0.233 µM
[3]
  CLRen: 4.4 mL/min/kg
  Clast: 4.39 ng/mL
  Tlast: 2.5 h

## CCN(CCNC(=O)c1cc(Cl)c(N)cc1OC)CCOCCO [M7]
Human hepatocytes; [5]
  % of Total Metabolism, Human Hep 1 hr: trace
  % of Total Metabolism, Human Hep 4 hr: trace
[1]; [6]
  % of Total Metabolism, Rat Hep 1 hr: 1.7%
  % of Total Metabolism, Rat Hep 4 hr: 1.2%
[1]; [5]
  % of Total Metabolism, Rat Hep 1 hr: 1.2%
  % of Total Metabolism, Rat Hep 4 hr: 2.2%

## CCN(CCNC(=O)c1cc(Cl)c(N)cc1OC)CCOCCOCCOCCOC [mPEG4-N-Metoclopramide]
[2]
  Fold-change Relative to Parent: 2.0
  IC50: 30.7 µM
Dopamine 2S receptor
  Fold-change Relative to Parent: 37.03
  IC50: 3.04 µM
Human hepatocytes
  extent of metabolism in human hepatocytes: low metabolism
Human hepatocytes; [6]
  % of Total Metabolism, Human Hep 1 hr: 100%
  % of Total Metabolism, Human Hep 4 hr: 93.7%
[4]
  Fold-change Relative to Parent: 0.62
  IC50: 644 nM and 640 nM
In vivo
  AUC(0-inf): 63.5 ng·h/mL
  MRT inf: 33.6 min
  Vd: 7.17 L/kg
  clearance: 133 mL/min/kg
  half-life: 39 min
In vivo; po, 2.5 mg/kg
  AUC: 41.4 ng·h/mL
  Cmax: 16.6 ng/mL
  Tmax: 2 h
  bioavailability: 14.5%
[1]; [6]
  % of Total Metabolism, Rat Hep 1 hr: 61.5%
  % of Total Metabolism, Rat Hep 4 hr: 16.1%
[1]
  major metabolic pathway: N-dealkylation
Dopamine 2L receptors
  Fold-change Relative to Parent: 38.7
  IC50: 3.26 µM
[3]
  CLRen: 9.0 mL/min/kg
  Clast: 3 ng/mL
  Tlast: 5 h

## CCN(CCO)CCNC(=O)c1cc(Cl)c(N)cc1OC [M10]
[1]; [5]
  % of Total Metabolism, Rat Hep 4 hr: trace
